According to patent publication US20250368638A1, “BICYCLIC INHIBITORS OF NICOTINAMIDE […], COMPOSITIONS AND USES THEREOF” (President and Fellows of Harvard College, priority 2021, published 2025):

Tests used:
K562 (ATCC) cells = test: Cellular potency: 1-MNA levels in K562 cells after compound incubation; type: cell-based; conditions: Homo sapiens, 24 h incubation
Experimental: Cellular potency was measured in K562 (ATCC) cells via measuring (1-methyl nicotinamide) 1-MNA levels after compound incubation at varying concentrations overnight. Cells were plated at 1 million per well and were incubated for 24 h with compounds at indicated concentrations. Cells were collected by pipetting and extracted with 200 ul acetonitrile containing internal deuterated standard 10 ng/ml d4-1-MNA. Samples were analyzed on an Agilent 64-60 Triple Quad LC/MS with Agilent 1290 Infinity HPLC using a Restek Allure 5 um PPFP column 150 mm×2.1. The mobile phase A was 2.5 mM ammonium formate in water, and mobile phase B was methanol with 0.1% formic acid, delivered at 0.25 mL/min. The capillary voltage was set to 2400V and the nozzle at 300V. The drying gas temperature was 240° C., the drying gas flow rate was 4 L/min, and the nebulizer pressure was 40 psi. The mass spectrometer was run in multiple reaction monitoring mode. Mass transitions were m/z 137.1 à 94.1 for 1-MNA and m/z 141.1 à 98.1 for d4-MNA.

[1] = Metabolic stability in pooled male mouse liver microsomes
Experimental: A master solution was prepared according to the following table.
40 μL of 10 mM NADPH solution was added to each well. The final concentrations of NADPH was 1 mM. The mixture was pre-warmed at 37° C. for 5 minutes. The negative control samples were prepared by replacing NADPH solutions with 40 μL of ultra-pure H2O. The negative control was used to exclude the misleading factor that resulted from instability of chemical itself. Samples with NADPH were prepared in duplicate. Negative controls were prepared in singlet.
The reaction was started with the addition of 4 μL of 200 μM control compound or test compound solutions. […] Samples were centrifuged at 3, 220 g for 40 minutes. Aliquot of 90 μL of the supernatant was mixed with 90 μL of ultra-pure H2O and then used for LC-MS/MS analysis.
For metabolite standard samples: 1 μL of 400 μM working solution was added to 89 μL master solution following by adding 400 μL of cold acetonitrile with internal standard (IS) (100 nM alprazolam, 200 nM Imipramine, 200 nM labetalol and 2 μM ketoprofen). Then 10 μL of 10 mM NADPH solution or ultra-pure H2O was added to the mixture. Samples were centrifuged at 3,220 g for 40 minutes to precipitate protein. Aliquots of 90 μL supernatant diluted by 90 μL of water was used for LC-MS/MS analysis.

[2] = test system: CYP1A2, CYP2A6, CYP2B6, CYP2C8, CYP2C9, CYP2C19, CYP2D6, CYP2E and CYP3A4; test: CYP inhibition studies in human liver microsomes; type: in vitro ADME; conditions: up to 100 μM
Experimental: 1. 1 μL of multiple concentrations of test compound or positive control compound (CYP1A2: furafylline, CYP2A6: tranylcypromine, CYP2B6: ketoconazole, CYP2C8: quercetin, CYP2C9: sulfaphenazole, CYP2C19: N-3-benzylnirvanol, CYP2D6: quinidine, CYP2E1: disulfiram and CYP3A4: ketoconazole) was transferred to the “Compound Plate”. The concentrations of test compounds were 0, 0.6, 2, 6, 20, 60, 2000, 6000 and 20000 μM. The concentrations of positive control compounds were 0, 0.2, 1, 2, 10, 50, 200, 2000 and 10000 μM.
2. The master solution was prepared according to the Table 9A and 9B, and pre-warmed in the water bath at 37° C. for 5 minutes. 179 μL of master solutions were transferred to “Incubation Plate”. In the mixed system, the final concentrations of test compound were 0, 0.003, 0.01, 0.03, 0.1, 0.3, 10, 30 & 100 μM, and the final concentrations of positive control compound were 0, 0.001, 0.005, 0.01, 0.05, 0.25, 1, 10 & 50 μM. All experiments were performed in duplicate.
3. The reaction was started with the addition of 20 μL of 10 mM NADPH solution at the final concentration of 1 mM and carried out at 37° C.
4. […]
5. […] The formation of metabolites was analyzed by using LC-MS/MS. […]
6. […] The formation of metabolites were analyzed by using LC-MS/MS. […] The IC50 shift was calculated for evaluating the mechanism of the inhibition.

[3] = male, mouse, pooled liver microsomes

C[C@@H]1Cc2cc(C(N)=O)cnc2N1 [Compound 11, (2R)-2-methyl-2,3-dihydro-1H-pyrrolo[2,3-b]pyridine-5-carboxamide]
IC50 (K562 (ATCC) cells): 38 nM | Predicted hepatic CL ([1]; Mouse liver microsomes): <18.76 mL/min/kg | Remaining (%) at 60 minutes ([1]; Mouse liver microsomes): 93.24% | CLint scaled at 2 μM [1, 3]: < 23.7 mL/min/kg | half-life at 2 μM [1, 3]: > 4.26 h | microsomal CLint at 2 μM [1, 3]: < 5.42 µL/min/mg | Inhibition of CYP isoforms [2]: did not inhibit
